{
  "source": "ChEMBL document CHEMBL1156911",
  "about": "(Bioorg Med Chem, 2010)",
  "key": {"[1]": {"target": "T1, 11-beta-hydroxysteroid dehydrogenase 1 (Homo sapiens, UniProt P28845)", "assay": "Inhibition of human recombinant 11beta-HSD1 expressed in HEK293 cells assessed as reduction of cortisone to cortisol conversion at 20 uM by scintillation counting", "format": "cell-based"}, "[2]": {"target": "T2, 11-beta-hydroxysteroid dehydrogenase type 2 (Homo sapiens) (UniProt P80365)", "T2 sequence (whole entry)": "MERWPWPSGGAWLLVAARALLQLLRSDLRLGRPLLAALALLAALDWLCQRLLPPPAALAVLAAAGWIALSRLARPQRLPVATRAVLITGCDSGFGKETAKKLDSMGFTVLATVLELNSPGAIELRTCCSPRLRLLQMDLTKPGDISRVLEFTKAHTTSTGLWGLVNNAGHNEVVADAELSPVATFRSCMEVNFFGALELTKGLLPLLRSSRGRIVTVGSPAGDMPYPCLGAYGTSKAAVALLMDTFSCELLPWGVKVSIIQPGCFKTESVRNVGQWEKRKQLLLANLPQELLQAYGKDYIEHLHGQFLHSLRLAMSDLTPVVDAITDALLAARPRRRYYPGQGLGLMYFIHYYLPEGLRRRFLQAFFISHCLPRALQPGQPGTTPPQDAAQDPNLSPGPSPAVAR", "assay": "Inhibition of human recombinant 11beta-HSD2 expressed in HEK293 cells assessed as reduction of […] conversion at 20 uM by scintillation counting", "format": "cell-based"}, "[3]": {"target": "T1, 11-beta-hydroxysteroid dehydrogenase 1", "assay": "Inhibition of human recombinant 11beta-HSD1 expressed in HEK293 cells assessed as partial reduction of cortisone to cortisol conversion at 3 uM by scintillation counting", "format": "cell-based"}, "[4]": {"target": "T1, 11-beta-hydroxysteroid dehydrogenase 1", "assay": "Inhibition of human recombinant 11beta-HSD1 expressed in HEK293 cells assessed as reduction of cortisone to cortisol conversion by scintillation counting", "format": "cell-based"}, "[5]": {"target": "T1, 11-beta-hydroxysteroid dehydrogenase 1", "conditions": "HEK293, 4 uM", "description": "Inhibition of human recombinant 11beta-HSD1 expressed in HEK293 cells assessed as partial reduction of cortisone to cortisol conversion at 4 uM by scintillation counting"}, "[6]": {"target": "T2, 11-beta-hydroxysteroid dehydrogenase type 2 (Homo sapiens)", "assay": "Inhibition of human recombinant 11beta-HSD2 expressed in HEK293 cells assessed as reduction of […] conversion up to 20 uM by scintillation counting", "format": "cell-based"}, "[7]": {"target": "T1, 11-beta-hydroxysteroid dehydrogenase 1", "assay": "Inhibition of human recombinant 11beta-HSD1 expressed in HEK293 cells assessed as partial reduction of cortisone to cortisol conversion at 1.5 uM by scintillation counting", "format": "cell-based"}},
  "note": "Active and inactive are the calls of the source. No cut-off for these calls is given here.",
  "data": [
    {"smiles": "CC(=O)O[C@@H]1CC[C@@]2(C)[C@@H](CC[C@]3(C)[C@@H]2C(=O)C=C2[C@@H]4[C@@H](C)[C@H](C)CC[C@]4(C)CC[C@]23C)[C@@]1(C)C(=O)O", "values": [
      {"measurement": "inhibition", "setting": "[1]", "value": 63, "unit": "%"},
      {"measurement": "inhibition", "setting": "[2]", "value": 52, "unit": "%"}
    ]},
    {"smiles": "CC[C@H](CC[C@@H](C)[C@H]1CC[C@H]2[C@@H]3CC=C4C[C@@H](O)CC[C@]4(C)[C@H]3CC[C@]12C)C(C)C", "values": [
      {"measurement": "Activity", "setting": "[2]", "value": "inactive"}
    ]},
    {"smiles": "C[C@H](CC(=O)C[C@@H](C)[C@H]1C[C@H](O)[C@@]2(C)C3=C(C(=O)C[C@]12C)[C@@]1(C)CCC(=O)C(C)(C)[C@@H]1C[C@@H]3O)C(=O)O", "values": [
      {"measurement": "inhibition", "setting": "[1]", "value": 46, "unit": "%"},
      {"measurement": "inhibition", "setting": "[2]", "value": 76, "unit": "%"}
    ]},
    {"smiles": "C[C@H]1[C@H](C)CC[C@]2(C(=O)O)CC[C@]3(C)C(=CC[C@@H]4[C@@]5(C)C[C@@H](O)C(=O)C(C)(C)[C@@H]5CC[C@]43C)[C@H]12", "values": [
      {"measurement": "inhibition", "setting": "[3]", "value": "Active"},
      {"measurement": "Activity", "setting": "[2]", "value": "inactive"}
    ]},
    {"smiles": "COC(=O)[C@]12CC[C@@H](C)[C@@](C)(O)[C@H]1C1=CC[C@@H]3[C@@]4(C)C[C@@H](O)[C@H](O)C(C)(C)[C@@H]4CC[C@@]3(C)[C@]1(C)CC2", "note": "[TORMENTIC ACID METHYL ESTER]", "values": [
      {"measurement": "IC50", "setting": "[4]; read-out: IC50", "value": 9400, "unit": "nM"},
      {"measurement": "inhibition", "setting": "[5]", "value": "Active"},
      {"measurement": "Activity", "setting": "[2]", "value": "inactive"}
    ]},
    {"smiles": "C[C@@H]1CC[C@]2(C(=O)O)CC[C@]3(C)C(=CC[C@@H]4[C@@]5(C)C[C@@H](O)[C@H](OC(=O)/C=C/c6ccc(O)cc6)C(C)(C)[C@@H]5CC[C@]43C)[C@@H]2[C@]1(C)O", "values": [
      {"measurement": "IC50", "setting": "[4]; hek293", "value": "Not Active"},
      {"measurement": "Activity", "setting": "[2]", "value": "inactive"}
    ]},
    {"smiles": "COC(=O)[C@]12CC[C@@H](C)[C@H](C)[C@H]1C1=CC[C@@H]3[C@@]4(C)C[C@@H](O)[C@H](O)C(C)(C)[C@@H]4CC[C@@]3(C)[C@]1(C)CC2", "note": "[COROSOLIC ACID METHYL ESTER]", "values": [
      {"measurement": "IC50", "setting": "[4]; hek293", "value": "Not Active"},
      {"measurement": "Activity", "setting": "[2]", "value": "inactive"}
    ]},
    {"smiles": "C[C@@H]1CC[C@]2(C(=O)O)CC[C@]3(C)C(=CC[C@@H]4[C@@]5(C)C[C@@H](O)[C@H](OC(=O)/C=C\\c6ccc(O)cc6)C(C)(C)[C@@H]5CC[C@]43C)[C@@H]2[C@]1(C)O", "values": [
      {"measurement": "IC50", "setting": "[4]; hek293", "value": "Not Active"},
      {"measurement": "Activity", "setting": "[2]", "value": "inactive"}
    ]},
    {"smiles": "C[C@H]1[C@H](C)CC[C@]2(C)CC[C@]3(C)C(=CC(=O)[C@@H]4[C@@]5(C)CC[C@@H](O)[C@](C)(C(=O)O)[C@@H]5CC[C@]43C)[C@H]12", "values": [
      {"measurement": "inhibition", "setting": "[1]", "value": 52, "unit": "%"},
      {"measurement": "inhibition", "setting": "[2]", "value": 68, "unit": "%"}
    ]},
    {"smiles": "C[C@@H]1CC[C@]2(C(=O)O)CC[C@]3(C)C(=CC[C@@H]4[C@@]5(C)C[C@@H](O)[C@H](O)C(C)(C)[C@@H]5CC[C@]43C)[C@@H]2[C@]1(C)O", "note": "[TOMENTIC ACID]", "values": [
      {"measurement": "IC50", "setting": "[4]; hek293", "value": "Not Active"},
      {"measurement": "Activity", "setting": "[2]", "value": "inactive"}
    ]},
    {"smiles": "COC(=O)[C@]12CC[C@@H](C)[C@H](C)[C@H]1C1=CC[C@@H]3[C@@]4(C)CC[C@H](O)C(C)(C)[C@@H]4CC[C@@]3(C)[C@]1(C)CC2", "values": [
      {"measurement": "Activity", "setting": "[2]", "value": "inactive"}
    ]},
    {"smiles": "C[C@H]1[C@H](C)CC[C@]2(C(=O)O)CC[C@]3(C)C(=CC[C@@H]4[C@@]5(C)C[C@@H](O)[C@H](O)C(C)(C)[C@@H]5CC[C@]43C)[C@H]12", "note": "[COROSOLIC ACID]", "values": [
      {"measurement": "inhibition", "setting": "[4]", "value": "Dose-dependent effect"},
      {"measurement": "IC50", "setting": "[4]; read-out: IC50", "value": 810, "unit": "nM"},
      {"measurement": "inhibition", "setting": "[6]", "value": "inactive"}
    ]},
    {"smiles": "C[C@H]1[C@H](C)CC[C@]2(CO)CC[C@]3(C)C(=CC[C@@H]4[C@@]5(C)CC[C@H](O)C(C)(C)[C@@H]5CC[C@]43C)[C@H]12", "note": "[UVAOL]", "values": [
      {"measurement": "IC50", "setting": "[4]; hek293", "value": "Not Active"},
      {"measurement": "Activity", "setting": "[2]", "value": "inactive"}
    ]},
    {"smiles": "CC(=O)O[C@H]1CC[C@]2(C)[C@H]3C(=O)C=C4[C@@H]5[C@@H](C)[C@H](C)CC[C@]5(C(=O)O)CC[C@@]4(C)[C@]3(C)CC[C@H]2C1(C)C", "note": "[11-OXOURSOLIC ACID ACETATE]", "values": [
      {"measurement": "IC50", "setting": "[4]; read-out: IC50", "value": 1350, "unit": "nM"}
    ]},
    {"smiles": "C[C@H]1[C@H](C)CC[C@]2(C(=O)O)CC[C@]3(C)C(=CC[C@@H]4[C@@]5(C)CC[C@H](O)C(C)(C)[C@@H]5CC[C@]43C)[C@H]12", "values": [
      {"measurement": "inhibition", "setting": "[7]", "value": "Active"},
      {"measurement": "Activity", "setting": "[2]", "value": "inactive"}
    ]},
    {"smiles": "C[C@H]1[C@H](C)CC[C@]2(C(=O)O)CC[C@]3(C)C(=CC(=O)[C@@H]4[C@@]5(C)CC[C@H](O)C(C)(C)[C@@H]5CC[C@]43C)[C@H]12", "values": [
      {"measurement": "IC50", "setting": "[4]; read-out: IC50", "value": 2060, "unit": "nM"}
    ]},
    {"smiles": "COC(=O)[C@]12CCC(C)(C)C[C@H]1C1=CC[C@@H]3[C@@]4(C)C[C@@H](O)[C@H](O)C(C)(C)[C@@H]4CC[C@@]3(C)[C@]1(C)CC2", "note": "[MASLINIC ACID METHYL ESTER]", "values": [
      {"measurement": "IC50", "setting": "[4]; hek293", "value": "Not Active"},
      {"measurement": "Activity", "setting": "[2]", "value": "inactive"}
    ]},
    {"smiles": "COC(=O)[C@]12CC[C@@H](C)[C@H](C)[C@H]1C1=CC[C@@H]3[C@@]4(C)C[C@@H](O)[C@@H](O)C(C)(C)[C@@H]4CC[C@@]3(C)[C@]1(C)CC2", "values": [
      {"measurement": "IC50", "setting": "[4]; read-out: IC50", "value": 5200, "unit": "nM"},
      {"measurement": "Activity", "setting": "[2]", "value": "inactive"}
    ]}
  ]
}
